For assay [1], the system named is P. aeruginosa UNC-D. Briefly: Minimum inhibitory concentrations of the UNC-D strain. It counts as cell-based. To be noted: for MIC: Pseudomonas aeruginosa, read-out: Minimum inhibitory concentration. As for the experimental part:
P. aeruginosa UNC-D is a sputum isolate from a patient with cystic fibrosis. [Lawrenz M B, et al. Pathog. Dis. 73 (2015)]. Bacteria were cultured on trypticase soy agar (TSA) plates and in Lennox broth at 37° C. with shaking of broth cultures. […] Bacteria were prepared for animal challenge studies by culturing bacteria in Lennox broth overnight and washing the bacteria into 1×PBS before diluting to a final concentration based on OD600-based estimates and a final 50 μl delivery dose. Bacterial inocula were confirmed by serial dilution and colony enumeration on TSA plates.

The next assay relates to S. pneumoniae isolates. To be noted: pediatric population; Cai et al. 2018; cited from earlier work.
Assay [2] relates to P. aeruginosa UNC-D. Briefly: Multidrug-resistant P. aeruginosa pneumonia in neutropenic BALB/c mice. It counts as in vivo.
Assay [3] concerns Streptococcus pneumoniae type 3. Put plainly: Antibiotic-sensitive pneumococcal pneumonia, CD1 mice, delayed treatment. It counts as in vivo. To be noted: PEN 100 μg i.m. on days 2 and 3 after infection; FIG. 3B.
The subject of assay [4] is Streptococcus pneumoniae type 14. Put plainly: Antibiotic-resistant pneumococcal pneumonia, CD1 mice, delayed treatment. Format: in vivo.
For assay [5] the test system is unchanged. Put plainly: In vitro bacterial growth, 1 h culture. As to conditions: PEN 16 μg/ml, pGSN 250 μg/ml, average of 2 replicates. Format: cell-based.
Assay [6] shares this test system. To be noted: cited from earlier work.

Consider eleven compounds from US20220339243A1, “COMPOSITIONS AND SYNERGISTIC METHODS FOR TREATING INFECTIONS” (BioAegis Therapeutics Inc., priority 2019, published 2022).

Values after ≈ are worked out from the molar mass of the structure shown.

Consider `C[C@@H](O)[C@H]1C(=O)N2C(C(=O)O)=C(SCCN=CN)C[C@H]12` [imipenem], for which the MIC in the assay with P. aeruginosa UNC-D [1] was found to be 16 µg/mL (≈ 53.4 µM).
Turning to colistin, the Minimum inhibitory concentration in the assay on P. aeruginosa UNC-D [1] amounted to 1 µg/mL.
Consider `CC[C@H]1OC(=O)[C@H](C)[C@@H](O[C@H]2C[C@@](C)(OC)[C@@H](O)[C@H](C)O2)[C@H](C)[C@@H](O[C@@H]2O[C@H](C)C[C@H](N(C)C)[C@H]2O)[C@](C)(O)C[C@@H](C)C(=O)[C@H](C)[C@@H](O)[C@]1(C)O` [erythromycin], for which the “resistance of S. pneumoniae isolates from invasive infections” value with S. pneumoniae isolates is listed as 96%.
On to `C[C@@H]1O[C@@H]1P(=O)(O)O` [fosfomycin], for which the MIC in the assay on P. aeruginosa UNC-D [1] turned out to be 256 µg/mL (≈ 1850 µM).
For `C[C@H]1[C@H](NC(=O)/C(=N\OC(C)(C)C(=O)O)c2csc(N)n2)C(=O)N1S(=O)(=O)O` [aztreonam], the MIC in the assay with P. aeruginosa UNC-D [1] came to 4 µg/mL (≈ 9.19 µM).
In the case of trimethoprim-sulfamethoxazole, in the assay on S. pneumoniae isolates, the “resistance of S. pneumoniae isolates from invasive infections” value was 79%.
Regarding `CCN1CCN(C(=O)N[C@@H](C(=O)N[C@@H]2C(=O)N3[C@@H]2SC(C)(C)[C@@H]3C(=O)O)c2ccccc2)C(=O)C1=O` [piperacillin], in the assay on P. aeruginosa UNC-D [1], the MIC was found to be 16 µg/mL (≈ 30.9 µM).
On to `NC[C@H]1O[C@H](O[C@H]2[C@H](O)[C@@H](O[C@H]3O[C@H](CO)[C@@H](O)[C@H](N)[C@H]3O)[C@H](N)C[C@@H]2N)[C@H](N)C[C@@H]1O` [tobramycin], for which, in the assay on P. aeruginosa UNC-D [1], the MIC stood at 32 µg/mL (≈ 68.4 µM).
Same read-out and setting: in the case of `CC(C)(O/N=C(\C(=O)N[C@@H]1C(=O)N2C(C(=O)[O-])=C(C[n+]3ccccc3)CS[C@H]12)c1csc(N)n1)C(=O)O` [ceftazidime] it was 32 µg/mL (≈ 58.5 µM).
On to `C[C@@H](O)[C@H]1C(=O)N2C(C(=O)O)=C(S[C@@H]3CN[C@H](C(=O)N(C)C)C3)[C@H](C)[C@H]12` [meropenem], for which, in the assay with P. aeruginosa UNC-D [1], the MIC came to 8 µg/mL (≈ 20.9 µM). Moreover, the “survival in each of experiments 1 and 2” value in the assay on P. aeruginosa UNC-D [2] (1250 mg/kg/day of meropenem) is at most 50%. Also, in the assay with P. aeruginosa UNC-D [2] (1250 mg/kg/day, two independent studies combined, FIG. 9C, p=0.0049), the “mean pathology score (lung, maximum 16)” value was found to be 6.86. For the same compound, the “near-normal lung histopathology, surviving mice as the denominator” value in the assay on P. aeruginosa UNC-D [2] (26/35 vs 38/46) turned out to be 74.3%. In addition, in the assay with P. aeruginosa UNC-D [2] (35/64 without and 46/64 with rhu-pGSN), the “overall survival, all dosing groups in the 3 experiments combined” value is given as 55%. For the same compound, the “overall survival with minor lung injury (pathology scores ≤2)” value in the assay with P. aeruginosa UNC-D [2] (all meropenem doses, three experiments, 26/64 vs 38/64, FIG. 10) turned out to be 41%. Moreover, the “spread to spleen / splenic counts” value in the assay with P. aeruginosa UNC-D [2] (both studies, combined data, pGSN given with meropenem) is “controlled spread from lung to spleen”. In addition, the “survival, third experiment” value with P. aeruginosa UNC-D [2] (different lot of meropenem, meropenem only group) is reported as 75%. Further, the “survival with near-normal lungs, control survival rate between 25% and 75%” value with P. aeruginosa UNC-D [2] (exploratory post-hoc analysis, 12/32 vs 27/32) was determined as 37.5%. Further, the “survival for 7 days, two sequential studies combined” value in the assay on P. aeruginosa UNC-D [2] (meropenem 1250 mg/kg/day s.c. q8h 5 days, rhu-pGSN 12 mg/day i.p. days -1 to +5, FIG. 7C) is reported as 31%. The “time to restoration of body temperature to 95° F. in survivors” value in the assay with P. aeruginosa UNC-D [2] (two studies with survival advantage, FIG. 11) is reported as 3-5 days post-infection.
In the case of penicillin, the survival in assay [3] is given as 100%. Further, in assay [4] (lung lavage 48 hours after infection, single dose, n=5-6/group), the total lavage neutrophils turned out to be 153±74 ×10E4. Also, in assay [4] (treatment from 24 h after infection, daily for 9 days, pGSN 5 mg i.p., PEN 1 mg i.m., FIG. 4A), the “survival (final four experiments)” value is “no benefit”. In addition, the “increase in bacterial CFU” value in assay [5] was 105000 CFU. For the same compound, in assay [6], the “minimum inhibitory concentration (MIC)” value is 8 µg/mL.
